Patent US20250263437A1, “POLYPEPTIDE FOR REPAIRING SKIN WOUND OR MUCOSAL INJURY, AND APPLICATION THEREOF” (Sichuan Gooddoctor Panxi Pharmaceutical Co., Ltd., priority 2021, published 2025)
Where no end group is shown, it is not given here.

Key:
[1] = test system: HaCaT cells; assay: Proliferation of HaCaT cells (CCK8); assay type: cell-based, human; settings: 0.2-0.8 μg/mL; 24 h, 48 h and 72 h; 1% serum
Experimental: Experimental method: Immortalized human keratinocytes (HaCaT cells) was adjusted to a concentration of 1.0×10^5 to 5.0×10^5/mL for passaging, and they were cultured at 37° C. and 5% CO2 for 24-36 h for biological activity detection. The cells were digested with 0.25% trypsin for 5 min, 1640 whole blood culture medium, the volume of which was not less than 1 time of the volume of the trypsin, was added to stop digestion, a cell suspension was collected, centrifuged at 1000 RPM for 3 min, the supernatant was discarded, 2 mL of 1640 whole blood culture medium was added to suspend the cells, 20 μL of the cell suspension was taken and stained with AOPI, the concentration of cells in the suspension was then detected by a cell counter, the suspension was prepared to a concentration of 5×10^4/mL with 1640 culture medium containing serum at a concentration of 10% and inoculated into a 96-well cell culture plate, with 100 μL per well, i.e., 5000 cells/well, and the plate was cultured at 37° C. and 5% CO2 overnight.
After 24 h, the original culture medium was discarded, and 100 μL of polypeptide compound solutions with different concentrations prepared with 1640 culture medium containing serum at a concentration of 1% were added, such that the final concentrations of the polypeptide compounds to be tested were 0.2, 0.4 and 0.8 ug/mL, respectively. In addition, an EGF control group was prepared by adding 100 μL of a recombinant human epidermal growth factor (EGF) solution prepared with 1640 culture medium containing serum at a concentration of 1%, with the final concentration being 100 ng/ml. In the model control group, an equal volume of 1640 culture medium containing serum at a concentration of 1% was added. After culturing at 37° C. and 5% CO2 for 24 h, 48 h and 72 h, the proliferation of the HaCaT cell line was detected by means of CCK8 kit.

[2] = test system: acute mechanical skin injury in rats; assay: Healing effect on acute mechanical skin injury in rats; assay type: in vivo; settings: for promoting wound healing (in words): 40 μg/cm^2; for wound healing rate, 5 days / wound healing rate, 10 days / wound healing rate, 14 days: polypeptide 40 μg/cm^2, Jinyintai 40 IU/cm^2, topical once daily, in % (unit assumed)
Experimental: SPF grade SD rats, weighing 180-230 g, were raised in respective clean sterilized cages, with water, feed and padding replacement given regularly every day. The feeding temperature was kept at 22° C. and the humidity was 55-65%. They were raised for one week for acclimatization. According to a random grouping method, the animals were divided into a model control group (normal saline), a Jinyintai control group (40 IU/cm^2, Shenzhen Watsin Genetech Ltd.) and a test polypeptide treatment group (40 μg/cm^2), with 6 animals in each group. After the rats were successfully anesthetized by intraperitoneal injection of 3% pentobarbital sodium, the hair within 1 cm around the edge of the wound was cut off, and the wound area was disinfected first with iodophor and then with 75% alcohol locally. A round full-thickness skin wound of 1.5 cm×1.5 cm (i.e., 1.5 cm in diameter) was made near the neck at 4 cm down to the back from the middle of the connecting line of the ears, with the spine as the midline. It went deep into the muscle layer, forming an animal model of acute mechanical injury. After modeling, the rats were raised in individual cages with the wounds exposed. During dressing replacement, the rats were all first debrided with iodophor, and then, the wound was washed with sterile normal saline and wiped dry. Except the model group, the wounds of the rats in the other groups were locally coated with 40 μL of the corresponding drug solution once daily. On days 0, 5, 10 and 14 of administration, the wound images of the rats in each group were taken, and the wound area was calculated by means of an image analysis software (Image J). According to the formula, the wound healing rate was obtained.

[3] = biological target: FGFR1 (Homo sapiens, UniProt P11362); assay: FGFR receptor binding assay: ultrafiltration/mass spectrometry affinity screening to FGFR1 protein target; settings: ratio of lower-layer to upper-layer compound MS signal intensity; the greater the ratio, the stronger the affinity
Experimental: The affinity of the polypeptide compound prepared by the present invention to FGFR1 was tested by using a control FGFR1 allosteric inhibitor (product number SSR128129E from Sigma) as a positive compound control.
Screening for the affinity to FGFR1 was as follows: FGFR1 solutions with an appropriate concentration were taken, the positive compound SSR128129E (Sigma) at an appropriate concentration and sample solutions of the inventive polypeptide compounds, as freeze-dried powders, dissolved in protein buffers were then respectively added. After incubation at room temperature for 50 min, ultrafiltration and screening were carried out to obtain various treated solutions. An appropriate volume of acetonitrile was added to each treated solution to precipitate a protein, the solution was then centrifuged, and the supernatant was taken and analyzed by mass spectrometry.
Affinity screening conditions: One-dimensional liquid-phase conditions were: chromatographic column; PolyLC chromatographic column, mobile phase A: KH2PO4, NaCl, pH 7.5, mobile phase B: acetonitrile, column temperature: 8° C., flow rate: 1 mL/min, and injection volume: appropriate; and two-dimensional liquid-phase conditions were: chromatographic column: BONUS RRHD, mobile phase A: 0.1% formic acid aqueous solution, mobile phase B: 0.1% formic acid in acetonitrile, column temperature: 60° C., flow rate: 0.3 mL/min, and injection volume: 40 uL. Gradient elution was used, i.e., 98% A (0-1 min), 98-10% A (1-6 min), 10% A (6-7.5 min), 10-98% A (7.5-8 min), and 98% A (8-9.5 min). Mass spectrometry conditions: Agilent 6530 Q-Tof, ESI ion source, voltage 3.5 KV, mass-to-charge ratio scanning range m/z=200-3000, acquisition mode: positive ion scanning, ion source temperature: 350° C., solvent removal temperature: 300° C., and nitrogen flow rate: 8 L/min.

Chain of FGFR1 (P11362 22-822, species assumed): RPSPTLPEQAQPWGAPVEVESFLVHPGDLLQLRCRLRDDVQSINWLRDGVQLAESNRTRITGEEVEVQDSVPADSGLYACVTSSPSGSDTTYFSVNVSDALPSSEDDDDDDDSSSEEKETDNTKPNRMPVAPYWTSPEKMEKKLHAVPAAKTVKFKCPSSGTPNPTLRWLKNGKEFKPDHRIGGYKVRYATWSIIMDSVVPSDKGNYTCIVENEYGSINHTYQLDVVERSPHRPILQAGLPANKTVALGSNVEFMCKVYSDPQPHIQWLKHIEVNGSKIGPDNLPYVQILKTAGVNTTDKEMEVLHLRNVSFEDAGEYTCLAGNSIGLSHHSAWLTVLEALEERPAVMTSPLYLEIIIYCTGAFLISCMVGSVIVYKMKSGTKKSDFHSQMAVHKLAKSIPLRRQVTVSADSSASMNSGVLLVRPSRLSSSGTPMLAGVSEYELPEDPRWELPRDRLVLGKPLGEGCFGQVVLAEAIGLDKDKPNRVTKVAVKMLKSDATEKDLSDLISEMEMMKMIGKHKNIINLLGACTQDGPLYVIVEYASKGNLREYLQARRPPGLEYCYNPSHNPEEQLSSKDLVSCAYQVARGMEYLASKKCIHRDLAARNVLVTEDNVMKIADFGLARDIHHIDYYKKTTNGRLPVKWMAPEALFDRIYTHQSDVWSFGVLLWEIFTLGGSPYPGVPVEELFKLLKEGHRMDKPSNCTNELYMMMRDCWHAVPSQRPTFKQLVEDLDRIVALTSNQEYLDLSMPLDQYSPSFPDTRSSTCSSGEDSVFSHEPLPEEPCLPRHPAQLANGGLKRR

Row | Sequence | effect on proliferation of HaCaT cells [1] | promoting wound healing (in words) [2] | wound healing rate, 5 days [2] | wound healing rate, 10 days [2] | wound healing rate, 14 days [2] | Cb/Ct range [3]
1 | SMQASLEAEAKGKAE [Compound 1] | proliferation-promoting effect | trend of promoting wound healing | 31.68 ± 3.48 | 63.20 ± 3.87 | 91.43 ± 2.87 | 1.0-3
2 | AAVLDKLE [Compound 68] | proliferation-promoting effect | trend of promoting wound healing | 29.26 ± 6.46 | 60.97 ± 2.87 | 88.42 ± 4.79 | 1.0-3
3 | VDAAVLEKLE [Compound 67] | proliferation-promoting effects | trend of promoting wound healing | 30.40 ± 3.35 | 61.42 ± 5.73 | 90.87 ± 3.94 | 1.0-3
